According to EPA's ToxValDB 9.5:

System: Rattus norvegicus
Conditions: oral
[1] = short-term, duration: 28 days, gavage, F, Sprague-Dawley, Clinical Observation: Salivation1000 (transient) + Body Weight Changes: Weight gain decrease + Hematology: Hgb decrease, Hct decrease, RBC …
[2] = short-term, duration: 28 days, gavage, M, Sprague-Dawley, Clinical Observation: Salivation1000 (transient) + Body Weight Changes: Weight gain decrease + Hematology: Hgb decrease, Hct decrease, RBC …
[3] = short-term, duration: 28 days, gavage, F, Sprague-Dawley
[4] = short-term, duration: 28 days, gavage, M, Sprague-Dawley
[5] = short-term, duration: 28 days, gavage, F, Sprague-Dawley, Absolute Organ Weight: Liver increase, Ovary increase, Thyroid increase + Relative Organ Weight: Ovary increase, Thyroid increase + …
[6] = short-term, duration: 28 days, gavage, M, Sprague-Dawley, Absolute Organ Weight: Liver increase, Ovary increase, Thyroid increase + Relative Organ Weight: Ovary increase, Thyroid increase + …
[7] = short-term, duration: 28 days, gavage, M/F, Clinical Observation: Salivation Soft stool Mucous stool + Body Weight Changes: Weight gain decrease + Food Consumption: decrease + …
[8] = subchronic, duration: 90 days, gavage, M/F, Wistar, Clinical Observation: Salivation + Body Weight Changes: Weight gain decrease + Food Consumption: decrease + Urinalysis: Ket increase, …

In the case of `CC(C)(C)OOC(C)(C)CCC(C)(C)OOC(C)(C)C` [2,5-Dimethyl-2,5-di-(tert-butylperoxy)hexane], the LOAEL [1] is reported as 200 mg/kg-day, the LOEL [1] is reported as 200 mg/kg-day and the NOAEL [1] is reported as 40 mg/kg-day. It also gave an NOEL [1] of 40 mg/kg-day, an LOAEL [2] of 1000 mg/kg-day and an LOEL [2] of 200 mg/kg-day. The NOAEL [2] was 200 mg/kg-day and the NOEL [2] was 40 mg/kg-day.
`Cc1ccc(C)c(N)c1` [2,5-Dimethylaniline] gave an NOEL (short-term, duration: 28 days, gavage, F, Sprague-Dawley, Clinical Observation: Staggering gait Lacrimation Salivation + Body Weight Changes: Body weight gain decrease + Food Consumption: decrease…) of 12 mg/kg-day and an NOEL (short-term, duration: 28 days, gavage, M, Sprague-Dawley, Clinical Observation: Staggering gait Lacrimation Salivation + Body Weight Changes: Body weight gain decrease + Food Consumption: decrease…) of under 12 mg/kg-day.
For `Cc1cccc(C)c1N` [2,6-Dimethylaniline], the NOEL (subchronic, duration: 13 weeks, gavage, M/F, Fischer 344, Body Weight Changes: decrease + Hematology: WBC decrease, RBC decrease, Hgb decrease, Hct decrease, Lympho decrease + Blood Chemistry: K …) was 20 mg/kg-day.
With `CCCCOCCOCCO` [2-(2-Butoxyethoxy)ethanol] the NOAEL (chronic, duration: 91 days, drinking water, M/F, Fischer 344, Body Weight Changes: Terminal body weight decrease + Food Consumption: decrease + Water Consumption: decrease + Hematology: RBC decrease, …) was 250 mg/kg-day.
`CCCOCCOCCO` [2-(2-Propoxyethoxy)ethanol] showed an NOAEL (subchronic, duration: 6 weeks, gavage, M, COBS, CD:BR, Clinical Observation: Narcosis(initial period only) + Body Weight Changes: Terminal body weight decrease + Food Consumption: decrease(day 3 …) of 814 mg/kg-day.
Compound `Cc1ccc(O)c(-n2nc3ccccc3n2)c1` [2-(2H-Benzotriazol-2-yl)-4-methylphenol] has an NOEL (subchronic, gavage, M, Sprague-Dawley, Urinalysis: Protein increase + Blood Chemistry: PL increase + Absolute Organ Weight: Liver increase + Relative Organ Weight: Liver increase…) of under 30 mg/kg-day.
For `Nc1cc(Cl)ccc1O` [2-Amino-4-chlorophenol], the NOEL (subchronic, gavage, M, Sprague-Dawley, Hematology: RBC decrease, Hgb decrease, MCHC decrease, Ret increase, Hct decrease + Absolute Organ Weight: Spleen increase + Relative Organ …) was 50 mg/kg-day.
Compound `O=C(O)c1ccccc1Cl` [2-Chlorobenzoic acid] has an NOEL (subchronic, gavage, M, Sprague-Dawley, Clinical Observation: Salivation + Body Weight Changes: decrease + Food Consumption: decrease + Hematology: RBC decrease, Hgb decrease, RET …) of 40 mg/kg-day.
`N#Cc1ccccc1Cl` [2-Chlorobenzonitrile] showed an NOEL (subchronic, gavage, M, Sprague-Dawley, Urinalysis: Ketone body increase + Hematology: APTT increase + Blood Chemistry: Cho increase, PL increase, ALT increasegamma-GTP increase, …) of 10 mg/kg-day.
`CCCCC(CC)C(=O)OOC(C)(C)C1CCCCC1` (stereo not drawn) [2-Cyclohexylpropan-2-yl 2-ethylhexaneperoxoate] gave an NOEL (short-term, duration: 28 days, gavage, M/F, Clinical Observation: Salivation + Blood Chemistry: GLUC decrease, TP increase, CRN decrease, BIL increase, T-CHO increase + Absolute Organ …) of under 8 mg/kg-day.
With `C=C(C)C(=O)NCCN1CCNC1=O` [2-Methyl-N-[2-(2-oxoimidazolidin-1-yl)ethyl]prop-2-enamide] the NOEL (short-term, duration: 28 days, gavage, M/F, Deaths + Clinical Observation: Salivation Abnormal breathing + Relative Organ Weight: Kidney increase + Necropsy: Stomach- Raised, limiting…) was 200 mg/kg-day.
`Cc1ncc[nH]1` [2-Methylimidazole] gave an NOEL (subchronic, diet, M/F, Fischer 344, Body Weight Changes: decrease + Food Consumption: decrease + Hematology: Plt increase, Hct decrease, Hgb decrease, RBC decrease, Ret …) of under 60 mg/kg-day.
With `OCCOc1ccccc1` [2-Phenoxyethanol] the NOAEL (subchronic, duration: 90 days, gavage, M/F, Clinical Observation: Lack of grooming Lethargy Prostration + Body Weight Changes: decrease + Food Consumption: decrease + Water Consumption…) was 80 mg/kg-day.
Compound `Cc1cc(-c2ccc(N)c(C)c2)ccc1N.Cl.Cl` [3,3'-Dimethylbenzidine dihydrochloride] has an NOEL (subchronic, duration: 13 weeks, drinking water, M/F, Fischer 344, Deaths + Clinical Observation: Crusty red exudate on the noses Thinness Stains on the fur + Body Weight Changes: decrease + Water …) of under 45.6 mg/kg-day.
`COC(CC#N)OC` [3,3-Dimethoxypropiononitrile] was tested, and the NOEL (short-term, duration: 28 days, gavage, M/F, Clinical Observation: Lethargy Salivation + Body Weight Changes: body weight gain decrease + Urinalysis: Urine volume increase, pH decrease…) was under 15 mg/kg-day.
With `O=C(Nc1ccccc1)c1cc2ccccc2cc1O` [3-Hydroxy-2-naphthanilide] the NOAEL [3] was 1000 mg/kg-day, the NOEL [3] was 1000 mg/kg-day and the NOAEL [4] was 1000 mg/kg-day. It also gave an NOEL [4] of 1000 mg/kg-day and an NOEL (subchronic, gavage, Sprague-Dawley) of 1000 mg/kg-day.
For `CCCC1CCC(C2CCC(=O)CC2)CC1` (stereo not drawn) [4'-Propyl[1,1'-bi(cyclohexane)]-4-one], the NOEL (short-term, duration: 28 days, gavage, M/F, Clinical Observation: Salivation + Blood Chemistry: IP increase, CRN increase, GPT increase, BIL increase, TP increase, T-CHO increase, …) was 8 mg/kg-day.
`CC(C)(C)c1cc(Cc2cc(C(C)(C)C)c(O)c(C(C)(C)C)c2)cc(C(C)(C)C)c1O` [4,4'-Methylenebis(2,6-di-t-butylphenol)] gave an LOEL [5] of 200 mg/kg-day, an NOEL [5] of 40 mg/kg-day and an LOEL [6] of 1000 mg/kg-day. It also gave an NOEL [6] of 200 mg/kg-day.
`CC(C)(c1ccc(O)cc1)c1cc(C(C)(C)c2ccc(O)cc2)c(O)cc1O` [4,6-Bis[2-(4-hydroxyphenyl)propan-2-yl]benzene-1,3-diol] showed an NOAEL [7] of 20 mg/kg-day and an NOEL [7] of under 5 mg/kg-day.
For `Cl.Nc1ccc(Cl)cc1` [4-Chloroaniline hydrochloride], the NOEL (subchronic, duration: 13 weeks, gavage, M/F, Fischer 344, Deaths + Body Weight Changes: decrease + Hematology: WBC increase, Lympho increase, Hct decrease, Hgb decrease, Methemoglobin increase, RBC …) was under 5 mg/kg-day.
`O=Cc1ccc(Cl)cc1` [4-Chlorobenzaldehyde] gave an NOEL (short-term, duration: 28 days, gavage, F, Sprague-Dawley, Clinical Observation: Salivation Tremor Soiled perigenital fur + Functional Observational Battery: Motor activity decrease + Body Weight …) of 40 mg/kg-day and an NOEL (short-term, duration: 28 days, gavage, M, Sprague-Dawley, Clinical Observation: Salivation Tremor Soiled perigenital fur + Functional Observational Battery: Motor activity decrease + Body Weight …) of 200 mg/kg-day.
`CCCCCCc1ccc(O)cc1O` [4-Hexylresorcinol] gave an NOEL (subchronic, duration: 13 weeks, gavage, M/F, Fischer 344, Deaths + Clinical Observation: Death + Body Weight Changes: decrease + Histopathology: Testis-Hypospermatogenesis Seminal vesicles-…) of under 62.5 mg/kg-day.
In the case of `CC1(C)CC(O)CC(C)(C)N1[O]` [4-Hydroxy-2,2,6,6-tetramethylpiperidin-1-yl)oxidanyl], the NOEL (short-term, duration: 28 days, gavage, M/F, Clinical Observation: Salivation + Hematology: Trend of Anemia + Absolute Organ Weight: Spleen increase, Liver increase + Histopathology: …) is reported as 40 mg/kg-day.
Work on `O=C(O)c1ccc([N+](=O)[O-])cc1` [4-Nitrobenzoic acid] yielded an NOEL (subchronic, duration: 13 weeks, diet, F, Fischer 344, Body Weight Changes: decrease + Hematology: Methemoglobin increase, Hct decrease, ,Hgb decrease, RBC decrease, Heinz body increase + Blood …) of 40 mg/kg-day and an NOEL (subchronic, duration: 13 weeks, diet, M/F, Fischer 344, Body Weight Changes: decrease + Hematology: Methemoglobin increase, Hct decrease, ,Hgb decrease, RBC decrease, Heinz body increase + Blood …) of under 60.5 mg/kg-day.
Compound `O=[N+]([O-])c1ccc(CCl)cc1` [4-Nitrobenzyl chloride] has an NOEL (short-term, duration: 28 days, gavage, M/F, Sprague-Dawley, Clinical Observation: Salivation + Functional Observational Battery: Locomotor activity decrease + Food Consumption: decrease + Water …) of under 8 mg/kg-day.
In the case of `C=CCOCCCCO` [4-allyloxy-1-butanol], the NOEL (short-term, duration: 28 days, gavage, M/F, Deaths + Clinical Observation: nasal discharge flatulence + Body Weight Changes: body weight gain decrease + Food Consumption: decrease + …) is reported as 10 mg/kg-day.
For `CC(=O)CCC=C(C)C` [6-Methyl-5-hepten-2-one], the NOAEL [8] was 50 mg/kg-day and the NOEL [8] was under 50 mg/kg-day.
With `COc1c2occc2cc2ccc(=O)oc12` [8-Methoxypsoralen] the NOEL (subchronic, duration: 13 weeks, gavage, M/F, Fischer 344, Deaths + Clinical Observation: Rough hair coat Hunched appearance + Body Weight Changes: decrease + Absolute Organ Weight: Liver increase + …) was under 25 mg/kg-day.
`CNC[C@H](O)c1cccc(O)c1.Cl` [(-)-Phenylephrine hydrochloride] showed an NOEL (subchronic, duration: 12 weeks, diet, M/F, Fischer 344, Deaths + Clinical Observation: Hyperexcitable + Body Weight Changes: decrease + Histopathology: Eye-Chronic keratitis Testis-Atrophy Seminal…) of 240 mg/kg-day.
Compound `C=CC(=O)OCc1c(Br)c(Br)c(Br)c(Br)c1Br` [(Pentabromophenyl)methyl acrylate] has an NOEL (short-term, duration: 28 days, gavage, M/F, Clinical Observation: Salivation increase, Hunchback position Staggering gait Lethargy Ptosis Emacation Flush in extremities + Urinalysis: S…) of under 15 mg/kg-day.
Compound `CC(=O)Nc1ccc(O)cc1` [Acetaminophen] has an NOEL (short-term, duration: 19 days, gavage, F, Wistar, Deaths + Clinical Observation: Emaciation(dead animals) Hypothermia(dead animals) Bradypnea(dead animals) Locomotor activity decrease(dead …) of 20 mg/kg-day, an NOEL (short-term, duration: 19 days, gavage, M, Wistar, Deaths + Clinical Observation: Emaciation(dead animals) Hypothermia(dead animals) Bradypnea(dead animals) Locomotor activity decrease(dead …) of 20 mg/kg-day and an NOEL (subchronic, duration: 13 weeks, diet, M/F, Fischer 344, Deaths + Clinical Observation: Dark yellow urine + Body Weight Changes: decrease + Absolute Organ Weight: Right testis decrease, Thymus …) of under 76.8 mg/kg-day.
With `C=CCOC(=O)CC(C)C` [Allyl isovalerate] the NOEL (subchronic, duration: 13 weeks, gavage, M/F, Fischer 344, Deaths + Body Weight Changes: decrease + Histopathology: Liver-Basophilic cytoplasmic change Liver-Multifocal coagulative necrosis Liver-…) was 31 mg/kg-day.
With `C=CCOC(=O)C(=C)C` [Allyl methacrylate] the NOAEL (subchronic, gavage, M, Sprague-Dawley, Clinical Observation: Hypersalivation + Body Weight Changes: Weight gain decrease + Absolute Organ Weight: Adrenal decrease, Thymus increase…) was 15 mg/kg-day.
`O=C1CCCCCCCCCCCN1` [Azacyclotridecan-2-one] gave an NOAEL (subchronic, duration: 90 days, gavage, M/F, Sprague-Dawley, Deaths: None (There were dead animals caused by intubation error) + Blood Chemistry: K increase, TP increase, Alb increase + Histopathology…) of 25 mg/kg-day.
With `O=C(Cl)c1ccccc1Cl` [Benzoyl chloride, 2-chloro-] the NOEL (subchronic, duration: 42 days, gavage, M, CD(SD), Clinical Observation: Salivation Soft/mucous stool Soiled perianal/perigenital fur + Body Weight Changes: Weight gain decrease + Food …) was 40 mg/kg-day.
In the case of `c1ccc(COc2ccc3ccccc3c2)cc1` [Benzyl 2-naphthyl ether], the NOEL (subchronic, gavage, M, Sprague-Dawley, Blood Chemistry: T-Bil increase + Relative Organ Weight: Liver increase + Histopathology: Kidney-Globular accumulation of eosinophilic …) is reported as under 100 mg/kg-day.
With `OCc1ccccc1` [Benzyl alcohol] the NOEL (subchronic, duration: 13 weeks, gavage, M/F, Fischer 344, Deaths + Clinical Observation: Died Staggering Labored breathing Blood around nose and mouth + Body Weight Changes: decrease + …) was 200 mg/kg-day.
